Experimental data: patent US20040254371A1, “New benzothiazine and benzothiadiazine compounds” (priority 2003, published 2004)

System: AMPA receptors
Test: Excitatory currents induced by AMPA in Xenopus oocytes (voltage-clamp)
Format: cell-based
Conditions: Xenopus oocytes injected with rat cerebral cortex poly(A+) mRNA, AMPA 10 μM, 20-24° C.
Method: Study of the excitatory currents induced by AMPA in Xenopus oocytes
mRNA's are prepared from cerebral cortex of male Wistar rats by the guanidinium thiocyanate/phenol/chloroform method. The poly (A^+) mRNA's are isolated by chromatography on oligo-dT cellulose and injected at a level of 50 ng per oocyte. The oocytes are incubated for 2 to 3 days at 18° C. to permit expression of the receptors and are then stored at 8-10° C.
Electrophysiological recording is carried out in a Plexiglass® chamber at 20-24° C. in OR2 medium (J. Exp. Zool., 1973, 184, 321-334) by the “voltage-clamp” method using two electrodes, with a third electrode placed in the bath serving as reference.
All the compounds are applied via the incubation medium and the electric current is measured at the end of the application period. AMPA is used in a concentration of 10 μM. For each compound studied, the concentration that doubles (EC2X) or quintuples (EC5X) the intensity of the current induced by AMPA alone (5 to 50 nA) is determined.

Going from O=S1(=O)NC2CCCN2c2ccc(Oc3cccc(-c4nnn[nH]4)c3)cc21 (stereo not drawn) [Example 1, 7-[3-(1H-Tetrazol-5-yl)phenoxy]-2,3,3a,4-tetrahydro-1H-pyrrolo-[2,1-c][1,2,4]benzothiadiazine 5,5-dioxide] to O=S1(=O)NC2CCCN2c2ccc(Oc3cccc(-c4cnco4)c3)cc21 (stereo not drawn) [Example 18, 7-[3-(1,3-Oxazol-5-yl)phenoxy]-2,3,3a,4-tetrahydro-1H-pyrrolo-[2,1-c][1,2,4]benzothiadiazine 5,5-dioxide], the “EC2X (concentration that doubles the intensity of the current induced by AMPA alone)” value rises from 0.2 µM to 0.66 µM (3.3-fold).

O=S1(=O)NC2CCCN2c2ccc(Oc3cccc(-c4ccoc4)c3)cc21 (stereo not drawn) [Example 17, 7-[3-(3-Furyl)phenoxy]-2,3,3a,4-tetrahydro-1H-pyrrolo[2,1-c][1,2,4]benzothiadiazine 5,5-dioxide] was tested, and the “EC2X (concentration that doubles the intensity of the current induced by AMPA alone)” value was 4.5 µM.

First: O=S1(=O)NC2CCCN2c2ccc(Oc3cccc(-c4nnn[nH]4)c3)cc21 (stereo not drawn) [Example 1, 7-[3-(1H-Tetrazol-5-yl)phenoxy]-2,3,3a,4-tetrahydro-1H-pyrrolo-[2,1-c][1,2,4]benzothiadiazine 5,5-dioxide]
Second: O=S1(=O)NC2CCCN2c2ccc(Oc3cccc(-c4cnco4)c3)cc21 (stereo not drawn) [Example 18, 7-[3-(1,3-Oxazol-5-yl)phenoxy]-2,3,3a,4-tetrahydro-1H-pyrrolo-[2,1-c][1,2,4]benzothiadiazine 5,5-dioxide]
The “EC5X (concentration that quintuples the intensity of the current induced by AMPA alone)” value of the first is 5-fold lower: 0.8 µM for the first, 4 µM for the second.

For O=S1(=O)NC2CCCN2c2ccc(Oc3cccc(-c4ccoc4)c3)cc21 (stereo not drawn) [Example 17, 7-[3-(3-Furyl)phenoxy]-2,3,3a,4-tetrahydro-1H-pyrrolo[2,1-c][1,2,4]benzothiadiazine 5,5-dioxide], the “EC5X (concentration that quintuples the intensity of the current induced by AMPA alone)” value was 11.5 µM.
